Laboratory results reported in article PMC9925432, “Thioquinoline derivatives conjugated to thiosemicarbazide as potent tyrosinase inhibitors with anti-melanogenesis properties” (Scientific Reports, 2023).
“Also recorded” adds a separate entry of the source. Like-named read-outs stand apart in the source and are kept apart here. Each block holds one compound with its values, some of them ahead of it.

How the values were obtained:
[1] = set-up: method as in PMID 33640246; details: at 8 µM; cited from earlier work
A375 cell line = assay: Melanin content assay; assay type: cell-based; details: A375, 48 h, at tested concentrations, kojic acid positive control
Protocol: The assay was performed according to previously reported procedures. In detail, A375 cells were seeded in six-well plates (2.0 × 10^5 cells/well). After 24 h, the medium was replaced by a fresh one and treated with 10g at different concentrations and the plate was incubated for an extra 48 h. After that cells were washed twice with PBS and harvested using […], then dissolved in 300 μl of 1 N NaOH/10% DMSO buffer and boiled for 2 h at 80 °C to solubilize the melanin. The absorbance of the supernatant was measured at 470 nm in a microplate reader. The obtained results were normalized using total protein content. Kojic acid was used as a positive[30],[34].

mushroom tyrosinase [2] = assay: Enzyme kinetic study (Lineweaver–Burk plot); assay type: biochemical
Protocol: The Lineweaver–Burk reciprocal plot was provided by plotting 1/V against 1/[S] at variable concentrations of the substrate L-Dopa (0.25, 0.5, 0.75, and 1 mM) The inhibition constant Ki was achieved by the plot of slopes versus the corresponding concentrations of the compound 10g[24].

[3] = MTT assay for cell viability, A375; assay type: cell-based; details: human, A375 cells, 48 h, mean ± S.E.M.
Protocol: (§1) The cytotoxic activity of all derivatives against the HEK 293 cell line and 10g against A375 (at a density of 5 × 10^3 cells/ml) using 3-(4,5-dimethylthiazol-2-yl)-2,5- diphenyltetrazolium bromide (MTT) assay were performed. Cells were grown at 37 °C in the presence of CO2 5% in DMEM (Gibco BRL, Grand Island, NY, USA), 10% fetal bovine serum (FBS, Gibco BRL), and penicillin/streptomycin (100 IU/mL and 100 µg/mL, respectively). Next cells were seeded in a 96-well plate and incubated at 37 ^∘C with derivatives at different concentrations for 48 h. Following the treatment, cells were incubated with MTT (0.5 mg/ml) at 37 ^∘C for 3 h. The MTT-containing medium was then removed, and 100 μl of DMSO was added to each well, mixed thoroughly with a 10 min shake to dissolve formazan crystals. The absorbance of each well was measured at 540 nm[33].

A375 cells = assay: MTT assay for cell viability, A375; assay type: cell-based; details: up to 32 μM
Protocol: as §1

[4] = molecular target: T1, Mushroom tyrosinase (EC 1.14.18.1) (Agaricus bisporus, UniProt C7FF04); assay: Tyrosinase inhibitory assay (colorimetric, diphenolase activity, L-Dopa); assay type: biochemical; details: L-Dopa as substrate; means ± RSD of 3 independent experiments
T1 construct: purchased Sigma Chemical Co
Protocol: Mushroom tyrosinase (EC 1.14.18.1) (Sigma Chemical Co.) was assayed using L-Dopa as the substrate as reported in our previous studies with some modifications[30]–[32]. The enzyme diphenolase activity was monitored spectrophotometrically by observing dopachrome formation at 490 nm. All the test samples were first dissolved in DMSO at 10 mM and diluted to the required concentrations. Initially, in a 96-well microplate, 10 µl of test samples were added to 160 µl of 50 mM phosphate buffer (pH = 6.8) and then 10 µl tyrosinase (500 U mL^−1) was added. After the mixture was pre-incubated at 28 °C for 20 min, 20 µl of L-Dopa solution (7 mM) was added to the mixture. After 10 min incubation absorbance of samples was measured. DMSO without test compounds was used as the control, and kojic acid was used as a positive control. Each assay was conducted as three separate replicates. The inhibitory activity of the tested compounds was expressed as the concentration that inhibited 50% of the enzyme activity (IC50). […]

tyrosinase = assay: Fluorescence quenching of tyrosinase (Stern–Volmer); assay type: binding
Protocol: The fluorescent measurements were carried out in each well of the black 96 well plate by adding various concentrations of inhibitor 10g, (Q = 5, 10, 20, 40, and 100 µM) to a constant concentration of tyrosinase (273 IU/mL). Next, phosphate buffer solution (0.05 M, pH = 6.8) was used to bring the capacity of each well to 200 µL. Before measurements, all solutions were properly mixed and allowed to stand for 20 min at 298 K and 304 K. A fluorescence spectrometer (BioTek’s multi-mode plate reader, USA) was used to measure the fluorescence spectra. The bandwidths of excitation and emission were both set at 5 nm, and fluorescence emission spectra were captured spanning the wavelength range of 310–400 nm at an excitation wavelength of 280 nm.
The linear Stern–Volmer Eq. (1) was used to examine the fluorescence quenching:1 F0/F=1+kqτ0Q=1+kSV[Q] where, F and F0 represent the fluorescence intensity in the presence or absence of inhibitors, respectively. The bimolecular quenching constant is denoted by the symbol kq, whereas the average lifespan of a biomolecule without a quencher is denoted by the symbol τ0, and its value is 10^−8 s. [Q] refers to the inhibitor concentration (µM). KSV which is calculated by kq . τ0. is the fluorescence quenching constant.
In order to calculate the apparent binding constant and binding fraction of fluorophore group of tyrosinase accessible to inhibitor 10g, Stern–Volmer Eq. (1) should be modified to Eq. (2):2 LogF0-F/F=log KA+n LogQ
In this equation, KA indicates either the modified apparent binding constant or the Stern–Volmer quenching constant. n represents the fraction of fluorophore accessible to the quencher. The intercept of the curve that is obtained by plotting log (F0-F/F) versus log [Q] is log KA, and the slope of the curve is n. Therefore, the intercept and slope data may be used to calculate the values of KA and n.

[5] = MTT assay for cell viability, HEK 293; assay type: cell-based; details: human, HEK 293 cells, 48 h, MTT, mean ± S.E.M.
Protocol: as §1

HEK 293 cell line = assay: MTT assay for cell viability, HEK 293; assay type: cell-based; details: HEK 293, 32 µM, 48 h, MTT; mean ± S.E.M.; 32 µM
Protocol: as §1

mushroom tyrosinase [6] = details: cited from earlier work
melanoma cells = system: melanoma cells; set-up: method as in PMID 28393917; details: cited from earlier work

T1 sequence (C7FF04 1-392 limits assumed): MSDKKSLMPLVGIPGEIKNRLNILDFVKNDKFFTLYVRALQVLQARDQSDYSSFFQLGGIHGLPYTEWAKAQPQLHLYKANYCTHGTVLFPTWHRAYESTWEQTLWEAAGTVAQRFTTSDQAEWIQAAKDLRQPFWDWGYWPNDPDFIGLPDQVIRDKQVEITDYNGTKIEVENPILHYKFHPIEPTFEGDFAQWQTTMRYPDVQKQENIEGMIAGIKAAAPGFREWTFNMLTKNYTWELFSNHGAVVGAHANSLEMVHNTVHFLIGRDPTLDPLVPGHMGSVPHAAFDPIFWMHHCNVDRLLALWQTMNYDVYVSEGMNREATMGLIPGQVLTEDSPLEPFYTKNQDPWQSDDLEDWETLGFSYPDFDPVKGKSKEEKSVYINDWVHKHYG

SMILES: O=c1cc(CSc2nc3ccccc3c(=O)n2Cc2ccccn2)occ1O [C]
- melanin content [1]: 68.99%

- Km (mushroom tyrosinase [2]; 10g 1 µM): 800 µM
- Vmax (mushroom tyrosinase [2]; 10g 1 µM): 80.00 mM/min
- Km (mushroom tyrosinase [2]; 10g 10 µM): 850 µM
- Vmax (mushroom tyrosinase [2]; 10g 10 µM): 67.57 mM/min
- Km (mushroom tyrosinase [2]; 10g 20 µM): 850 µM
- Vmax (mushroom tyrosinase [2]; 10g 20 µM): 50.25 mM/min
- Km (mushroom tyrosinase [2]; 10g 40 µM): 950 µM
- inhibition pattern (type of inhibition) (mushroom tyrosinase [2]; Lineweaver–Burk plot, L-Dopa as substrate): noncompetitive
- IC50 [4]: 25.7 µM
- KA (binding constant) (tyrosinase; 298 K): 71150 L/mol
- Kq (bimolecular quenching constant) (tyrosinase; 298 K): 6.69 × 10^12 L⋅mol^–1⋅s^–1
- Ksv (Stern–Volmer constant) (tyrosinase; 298 K): 6.69 × 10^4 L.mol^–1
- n (binding sites) (tyrosinase; 298 K): 0.9288
- n (binding sites) (tyrosinase; 298 K and 304 K): ~1
- Kq (bimolecular quenching constant) (tyrosinase; 298 K and 304 K, all values): higher than 2 × 10^10 L⋅mol^−1⋅s^−1
- KA (binding constant) (tyrosinase; 304 K): 52200 L/mol
- Kq (bimolecular quenching constant) (tyrosinase; 304 K): 5.14 × 10^12 L⋅mol^–1⋅s^–1
- Ksv (Stern–Volmer constant) (tyrosinase; 304 K): 5.14 × 10^4 L.mol^–1
- n (binding sites) (tyrosinase; 304 K): 1.0604
- melting point: 185 to 191 °C
SMILES: NC(=S)N/N=C/c1cc2ccccc2nc1SCC(=O)Nc1ccc(Cl)cc1 [Compound 10g, (E)-2-((3-((2-carbamothioylhydrazono)methyl)quinolin-2-yl)thio)-N-(4-chlorophenyl)acetamide]
- effect on melanin content (A375 cell line): reduced the melanin content; also recorded: significant reduction of melanin content
- viability at 48 h, 16 µM ([3]; A375, 16 µM): 93.7 ± 2.24%
- viability at 48 h, 32 µM ([3]; A375, 32 µM): 87.5 ± 1.53%
- viability at 48 h, 64 µM ([3]; A375, 64 µM): 61.2 ± 3.91%
- toxicity on A375 cell line (A375 cells): did not show significant toxicity
- viability at 48 h, 16 µM ([5]; HEK 293, 16 µM): 92.7 ± 1.47%
- viability at 48 h, 32 µM ([5]; HEK 293, 32 µM): > 85%
- viability at 48 h, 64 µM ([5]; HEK 293, 64 µM): 72.5 ± 2.41%
- Cell viability (%) (HEK 293 cell line): 86.14 ± 2.17%

SMILES: Oc1cnc2c(O)cccc2c1 [Jineol]
- IC50 (mushroom tyrosinase [6]; L-Dopa as substrate): 50.35 ± 0.05 µM
- IC50 (mushroom tyrosinase [6]; L-tyrosine as substrate): 39.46 ± 0.01 µM
- effect on melanin content (melanoma cells): reduced melanin content
